In US12590057B2, “Crystalline complexes” (Theracryf PLC, priority 2020, dated 2026):
Several values for one entry are separate records, joined by “and”; a condition that tells them apart may be missing. Equal entries are not always repeated.

How the values were obtained:
Assay type in all cases: physicochemical
[1] = Compaction testing (Heckel analysis); details: for True Density: Helium Pycnometry; for Loss on Drying - end: end of compression testing; for Loss on Drying - end / Loss on Drying - start: 105° C.; for Yield pressure slow: punch speed 0.1 mm/s; for Yield pressure fast: punch speed 300 mm/s; for Loss on Drying - start: start of compression testing
Excerpt: Samples of Form 1 and Form 3 were subjected to Heckel analysis to determine the yield pressure of the material upon compression under controlled conditions. A known weight of material was compressed within a 10 mm diameter die with flat faced punches moving at a set speed. The die was lubricated with magnesium stearate in acetone. The force on the punch was accurately measured at frequent intervals whilst the displacement of the punches was used to calculate the volume of the powder. The yield pressure was calculated at slow (0.1 mm/s) and fast (300 mm/s) punch speeds to assess the time dependant component to deformation of the material. The true density of the material was determined by Helium Pycnometry (Micromeritics AccuPyc II 1340) using a purge pressure and run fill pressure of 19.5 psig and an equilibration rate of 0.02 psig. Testing was performed in duplicate. Temperature and humidity were monitored at intervals during the testing.
The data were analysed by the Compaction Analysis software programme to generate values for yield pressure (Py) using the Heckel equation: ln(1/1−D)=kP+A where D=the relative density of the compact; P=Pressure applied; and K=Gradient of the line in the linear region [Heckel, Trans. Metall. Soc. AIME 221 (1961)1001-1008].
Strain Rate Sensitivity (SRS) can be calculated to determine whether the deformation characteristics of the material change with the rate of applied force. The yield pressure at high speed compression is compared to that at slow speed using the following equation [Roberts and Roe, Chem. Eng. Sci. 42(1987) p. 903]. % SRS=100×[(Py Fast−Py Slow)/Py Slow]
Loss on drying was carried out on the samples at the start and at the end of compression testing to monitor for moisture absorption during testing. A sample size of 2.0 g±0.2 g was spread onto an aluminium tray and dried until stable at 105° C. using a Mettler HB43-S Halogen moisture balance.

[2] = Variable humidity XRPD (VH-XRPD) at 25° C.
Excerpt: Non-ambient conditions: XRPD diffractograms were collected on a PANalytical Empyrean diffractometer using Cu Kα radiation (45 kV, 40 mA) in reflection geometry. The instrument is fitted with an Anton Paar CHC plus^+ stage fitted with graphite/Kapton windows and equipped with air cooling coupled with a proUmid MHG32 Modular Humidity Generator or a low vacuum pump system using an Edwards RV3 pump. A programmable divergence slit (in automatic mode), with a 10 mm fixed incident beam mask, Ni filter and 0.04 rad Soller slits were used on the incident beam. A PIXcel^3D detector, placed on the diffracted beam, was fitted with a programmable anti-scatter slit (in automatic mode) and 0.04 rad Soller slits. The software used for data collection was X'Pert Data Collector and the data analysed and presented using Diffrac Plus EVA or Highscore Plus. For variable humidity (VH-XRPD) experiments the samples were prepared and analysed in an Anton Paar chromed low-profile sample holder with silicon wafer insert. The measurement parameters are as per the standard screening data collection method (detailed above). For all variable humidity XRPD experiments, a pattern was recorded every hour. […] The Form 1 sample was loaded into the VH chamber, which was set to 40% RH and 25° C. and then the RH was decreased in 10% decrements to 10% RH followed by increasing the RH in 10% increments to 90% RH, while maintaining the temperature at 25° C. […] The sample then quickly transitioned from Form 1 at 80% RH to Form 2 at 90% RH. A variable humidity (VH) XRPD experiment was performed to examine how Form 3 exists under different RH conditions. […] The sample was stable as Form 2 for 8 hours at 80% RH. At 90% RH Form 2 existed for 2 hours before the sample deliquesced in the humidity chamber.

[3] = Chemical stability in biorelevant media
Procedure: Samples of Form 1 (batch ref […]-0004-S-8002) and Form 3 (Example 5.4.1 (batch ref. 491PAL22; A-19-0132)) in 0.1 M HCl and FaSSIF media (1.2 mg/ml) were stored at ambient and 37° C. for up to 7 days. Chemical stability was assessed by determining the concentration of parent compound by HPLC on days 0, 3 and 7 in triplicate.

[4] = Equilibrium solubility in biorelevant media (shake flask); set-up: Equilibrium solubility, Mean Conc: unit not given here; details: for equilibrium solubility in words: 0.1 M HCl and FaSSIF media; for Equilibrium solubility, Mean Conc: 37° C.
Procedure: The equilibrium solubility of samples of Form 1 (batch ref […]-0004-S-8002) and Form 3 (Example 5.4.1 (batch ref, 491PAL22; A-19-0132)) in 0.1M HCl and FaSSIF media at 37° C. was carried out using the shake flask method. Samples were taken at 4 hours and 24 hours and centrifuged for 5 minutes at 15,000 rpm. The supernatant was removed and diluted with appropriate solvent prior to HPLC analysis of the parent concentrations.

[5] = Typical water content of the crystalline forms
Procedure: The water content of a sample can be determined by any suitable means as will be apparent to one of skill in the art. In one embodiment, the water content is determined by Karl-Fischer titration. In one embodiment, the water content is determined by thermogravimetric analysis (TGA). In one embodiment, the water content is determined by gravimetric vapour sorption (GVS). After formation of the crystalline complex according to the invention, the water content may be as low as 1-3% w/w. However, after exposure of the complex to ambient conditions (25° C., 40% RH) the material typically equilibrates (e.g. over a period of 3-7 days) to a water content of up to 5-7% w/w. It has been found, however, that Form 3, once equilibrated to 5-7% w/w water, maintains physical form at 60% RH making it unexpectedly stable over the 0% and 60% humidity range.

[6] = 0.1M HCl, ambient, Day 0, 1.2 mg/ml nominal, Form 3 = Example 5.4.1
[7] = 0.1M HCl, 4 Hours, Form 3 = Example 5.4.1
[8] = FaSSIF, 4 Hours, atypical HPLC data and variable results
[9] = FaSSIF, 24 Hours, atypical HPLC data and variable results

| Structure (SMILES) | compaction classification [1] | sticking on punch or die wall [1] | True Density [1] | Loss on Drying - end [1] | Yield pressure slow [1] | Yield pressure fast [1] | Loss on Drying - start [1] | Mean Conc of parent ([3]; 0.1M HCl, 37° C., Day 0) | Mean Conc of parent ([3]; 0.1M HCl, 37° C., Day 3) | Mean Conc of parent ([3]; 0.1M HCl, 37° C., Day 7) | Mean Conc of parent [3, 6] | Mean Conc of parent ([3]; 0.1M HCl, ambient, Day 3) | Mean Conc of parent ([3]; 0.1M HCl, ambient, Day 7) | Mean Conc of parent ([3]; FaSSIF, 37° C., Day 0) | Mean Conc of parent ([3]; FaSSIF, 37° C., Day 3) | Mean Conc of parent ([3]; FaSSIF, 37° C., Day 7) | Mean Conc of parent ([3]; FaSSIF, ambient, Day 0) | Mean Conc of parent ([3]; FaSSIF, ambient, Day 3) | Mean Conc of parent ([3]; FaSSIF, ambient, Day 7) | equilibrium solubility in words [4] | other results |
| --- | --- | --- | --- | --- | --- | --- | --- | --- | --- | --- | --- | --- | --- | --- | --- | --- | --- | --- | --- | --- | --- |
| C[S+]([O-])CCCCN=C=S.OC[C@H]1O[C@@H]2O[C@H]3[C@H](O)[C@@H](O)[C@@H](O[C@H]4[C@H](O)[C@@H](O)[C@@H](O[C@H]5[C@H](O)[C@@H](O)[C@@H](O[C@H]6[C@H](O)[C@@H](O)[C@@H](O[C@H]7[C@H](O)[C@@H](O)[C@@H](O[C@H]1[C@H](O)[C@H]2O)O[C@@H]7CO)O[C@@H]6CO)O[C@@H]5CO)O[C@@H]4CO)O[C@@H]3CO [Form 3] | moderately hard brittle/ductile | no evidence of sticking | 1.4562 g/mL | 1.13% w/w | 109 MPa and 108.7 (±2.90) MPa | 140 MPa and 140.4 (±3.65) MPa | 1.99% w/w | 1.05 mg/mL | 0.94 mg/mL | 0.92 mg/mL | 1.08 mg/mL | 0.94 mg/mL | 1.01 mg/mL | 1.01 mg/mL | 0.80 mg/mL | 0.78 mg/mL | 1.00 mg/mL | 0.81 mg/mL | 0.93 mg/mL | high and comparable | RH at which the form starts to convert to a different form ([2]; 25° C., increasing RH): 70%; solid state form (VH-XRPD) ([2]; Form 3 sample, RH decreased to 70% RH, persisted to 40% RH): Form 2 converted to Form 1; solid state form (VH-XRPD) ([2]; Form 3 sample, RH raised from 40% up to 60%, 25° C.): Form 3 is maintained; solid state form (VH-XRPD) ([2]; Form 3 sample, RH raised to 70%): intermediate phase; solid state form (VH-XRPD) ([2]; Form 3 sample, RH raised to 80%): Form 2; solid state form (VH-XRPD) ([2]; Form 3 sample, after dropping from 90% to 80% RH): Form 2 returned as a highly crystalline material; time sample was stable as Form 2 (VH-XRPD) ([2]; Form 3 sample, at 80% RH): 8 h; time Form 2 existed before the sample deliquesced (VH-XRPD) ([2]; Form 3 sample, at 90% RH): 2 h; Equilibrium solubility, Mean Conc [4, 7]: 733; Equilibrium solubility, Mean Conc ([4]; 0.1M HCl, 24 Hours): 3057; Equilibrium solubility, Mean Conc [4, 8]: 264; Equilibrium solubility, Mean Conc [4, 9]: 221; water content after equilibration at ambient conditions ([5]; exposure to ambient conditions (25° C., 40% RH), e.g. 3-7 days): 5-7 % w/w |
| C[S+]([O-])CCCCN=C=S.OCC1OC2OC3C(CO)OC(OC4C(CO)OC(OC5C(CO)OC(OC6C(CO)OC(OC7C(CO)OC(OC1C(O)C2O)C(O)C7O)C(O)C6O)C(O)C5O)C(O)C4O)C(O)C3O (stereo not drawn) [Form 1] | soft ductile | no evidence of sticking | 1.4586 g/mL | 4.25% w/w | 76 MPa and 76.3 (±1.05) MPa | 89 MPa and 88.9 (±2.32) MPa | 4.07% w/w | 1.18 mg/mL | 1.06 mg/mL | 1.05 mg/mL | 1.22 mg/mL | 1.09 mg/mL | 1.05 mg/mL | 1.18 mg/mL | 0.92 mg/mL | 0.94 mg/mL | 1.16 mg/mL | 0.96 mg/mL | 0.90 mg/mL | high and comparable | solid state form (VH-XRPD) ([2]; Form 1 sample, RH reduced from 40% to 30% RH, 25° C.): intermediate phase; solid state form (VH-XRPD) ([2]; Form 1 sample, RH reduced to 20% RH, 25° C.): Form 3; solid state form (VH-XRPD) ([2]; Form 1 sample, after drying to 10% RH, RH increased to 70% RH): intermediate phase; solid state form (VH-XRPD) ([2]; Form 1 sample, after drying to 10% RH, RH increased to 80% RH): Form 1; solid state form (VH-XRPD) ([2]; Form 1 sample, after drying to 10% RH, RH increased to 90% RH): Form 2; Equilibrium solubility, Mean Conc [4, 7]: 632; Equilibrium solubility, Mean Conc ([4]; 0.1M HCl, 24 Hours): 2605; Equilibrium solubility, Mean Conc [4, 8]: 271; Equilibrium solubility, Mean Conc [4, 9]: 247; Typical water content [5]: 8-15 % w/w |
